Experimental data from BigSolDB 2.1.

CNC(=O)NC
solubility (mole fraction)
Conditions	288.15 K	293.15 K	298.15 K	303.15 K	308.15 K	313.15 K	318.15 K	323.15 K	328.15 K
in acetone	0.129	0.152	0.177	0.202	0.228	0.261	0.301	0.339	0.376
in acetonitrile	0.102	0.128	0.151	0.186	0.216	0.25	0.282	0.322	0.363
in ethyl acetate	0.0302	0.0421	0.0608	0.0825	0.111	0.14	0.175	0.22	0.271
in isopropanol	0.331	0.352	0.372	0.39	0.416	0.438	0.471	0.5	0.533
in n-butyl acetate	0.0137	0.0205	0.0296	0.0408	0.0602	0.0834	0.111	0.148	0.195
in sec-butanol	0.325	0.353	0.381	0.412	0.438	0.46	0.494	0.523	0.561
in water	0.362	0.38	0.405	0.436	0.464	0.494	0.533	0.57	0.601
